Test results from patent publication US20240041042A1, “1-(PYRIDYL)-5-AZINYLPYRAZOLE DERIVATIVES, AND THEIR USE FOR CONTROL OF UNDESIRED PLANT GROWTH” (Bayer Aktiengesellschaft, priority 2020, published 2024).
Read-outs that look alike come from different tables or passages of the source.

What was measured:
Assay type in all cases: in vivo
[1] = test system: Pharbitis purpurea (PHBPU); assay: Post-emergence herbicidal action against PHBPU
In short: (§1)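 Values are percent visual activity (0% like control, 100% plants dead) after about 3 weeks in the greenhouse. Treatment: post-emergence spray at one-leaf stage, 600 l/ha spray volume, 0.5% additive, doses 320 g/ha or lower.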

Lolium rigidum (LOLRI) [2] = assay: Post-emergence herbicidal action against LOLRI; details: dosage 320 g/ha
In short: as §1

[3] = test system: Triticum aestivum (TRZAS); details: crop plant compatibility, 80 g/ha, effect vs untreated controls
In short: (§2)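 Effects were read visually as % versus untreated controls (0% = no effect, 100% = death) about 3 weeks post-treatment. Application was a post-emergence spray at the one-leaf stage of WP/EC formulations with 0.5% additive at 600 l/ha. Different dosages are denoted a, b and c.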

Oryza sativa (ORYSA) [4] = details: crop plant compatibility, effect in comparison to untreated controls
In short: as §2

Zea mays (ZEAMX) [5] = details: crop plant compatibility, effect vs untreated controls
In short: as §2

[6] = test system: Amaranthus retroflexus (AMARE); assay: Post-emergence herbicidal action against AMARE; details: 320 g/ha, visual rating about 3 weeks after treatment
In short: as §1

Setaria viridis (SETVI) = assay: Post-emergence herbicidal action against SETVI; details: dosage 320 g/ha
In short: as §1

Brassica napus (BRSNW) = details: crop plant compatibility, in comparison to untreated controls
In short: (§3)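 Scoring: visual, % of untreated control, about 3 weeks after a pre-emergence application to the soil surface. Application used WP or EC formulations diluted in water with 0.5% additive at 600 l/ha; dosage levels are marked by suffixes a, b and c.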

Oryza sativa (ORYSA) [7] = details: pre-emergence, crop plant compatibility, in comparison to untreated controls
In short: as §3

Glycine max (GLXMA) = details: pre-emergence, 80 g/ha, crop plant compatibility, in comparison to untreated controls
In short: as §3

Zea mays (ZEAMX) [8] = details: pre-emergence, crop plant compatibility, in comparison to untreated controls
In short: as §3

[9] = test system: Alopecurus myosuroides (ALOMY); assay: Pre-emergence herbicidal action against ALOMY; details: 320 g/ha; scored visually after about 3 weeks; 100% = plants have died
In short: (§4)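 Read-out is visual percent damage relative to untreated pots, with 100% meaning dead plants and 0% meaning no difference, assessed roughly three weeks after treatment. Compounds were applied pre-emergence to the covering soil at up to 320 g/ha.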

[10] = test system: Alopecurus myosuroides (ALOMY); assay: Post-emergence herbicidal action against ALOMY; details: 320 g/ha, visual rating about 3 weeks after treatment vs untreated controls (100% = plants have died, 0% = like control plants)
In short: as §1

[11] = test system: Polygonum convolvulus (POLCO); assay: Pre-emergence herbicidal action against POLCO; details: dosage 320 g/ha
In short: as §4

[12] = test system: Digitaria sanguinalis (DIGSA); assay: Pre-emergence herbicidal action against DIGSA; details: dosage 320 g/ha
In short: as §4

Viola tricolor (VIOTR) [13] = assay: Pre-emergence herbicidal action against VIOTR; details: 320 g/ha, Viola tricolor
In short: as §4

[14] = test system: Digitaria sanguinalis (DIGSA); assay: Post-emergence herbicidal action against DIGSA; details: 320 g/ha, visual rating about 3 weeks after treatment
In short: as §1

[15] = test system: Polygonum convolvulus (POLCO); assay: Post-emergence herbicidal action against POLCO
In short: as §1

Avena fatua (AVEFA) = assay: Post-emergence herbicidal action against AVEFA; details: 320 g/ha, visual rating about 3 weeks after treatment
In short: as §1

Viola tricolor (VIOTR) [16] = assay: Post-emergence herbicidal action against VIOTR
In short: as §1

Lolium rigidum (LOLRI) [17] = assay: Pre-emergence herbicidal action against LOLRI; details: dosage 320 g/ha
In short: as §4

[18] = test system: Amaranthus retroflexus (AMARE); assay: Pre-emergence herbicidal action against AMARE; details: 320 g/ha, visual scoring after about 3 weeks vs untreated controls
In short: as §4

SMILES	Post-emergence action against PHBPU in % ([1]; dosage 320 g/ha) [%]	Post-emergence action against LOLRI in % (Lolium rigidum (LOLRI) [2]) [%]	Post-emergence action against TRZAS in % [3] [%]	Post-emergence action against ORYSA in % (Oryza sativa (ORYSA) [4]; 80 g/ha) [%]	Post-emergence action against ORYSA in % (Oryza sativa (ORYSA) [4]; 320 g/ha) [%]	Post-emergence action against ZEAMX in % (Zea mays (ZEAMX) [5]; 80 g/ha) [%]	Post-emergence action against ZEAMX in % (Zea mays (ZEAMX) [5]; 320 g/ha) [%]	Post-emergence action against AMARE in % [6] [%]	Pre-emergence action against BRSNW in % (Brassica napus (BRSNW); 80 g/ha) [%]	Pre-emergence action against ORYSA in % (Oryza sativa (ORYSA) [7]; 80 g/ha) [%]	Pre-emergence action against ORYSA in % (Oryza sativa (ORYSA) [7]; 320 g/ha) [%]	Pre-emergence action against GLXMA in % (Glycine max (GLXMA)) [%]	Pre-emergence action against ZEAMX in % (Zea mays (ZEAMX) [8]; 80 g/ha) [%]	Pre-emergence action against ZEAMX in % (Zea mays (ZEAMX) [8]; 320 g/ha) [%]	also measured
CCOC(=O)COc1nn(-c2ncccc2OC)c(-c2ccc(F)nc2)c1Br [Example I-371]	80	90	20	0	0	20	20	80	0	0	0	20	0	10	Post-emergence action against SETVI in % (Setaria viridis (SETVI)): 80%; Pre-emergence action against BRSNW in % (Brassica napus (BRSNW); 320 g/ha): 20%
COc1cccnc1-n1nc(OCC(=O)O)c(Cl)c1-c1ccc(F)nc1 [Example I-329]	80	–	0	0	0	0	0	–	0	0	20	0	0	10	–
COC(=O)[C@@H](C)Oc1nn(-c2ccccn2)c(-c2ccc(Cl)nc2)c1Br [Example I-242]	80	80	–	0	0	10	–	80	20	–	–	0	0	–	Pre-emergence action against ALOMY [9]: 80%; Post-emergence action against ALOMY in % [10]: 80%; Post-emergence action against PHBPU in % ([1]; dosage 80 g/ha): 80%; Pre-emergence action against POLCO in % [11]: 80%; Pre-emergence action against DIGSA in % [12]: 90%; Pre-emergence action against VIOTR in % (Viola tricolor (VIOTR) [13]): 100%; Post-emergence action against DIGSA in % [14]: 80%; Post-emergence action against POLCO in % ([15]; dosage 80 g/ha): 80%; Post-emergence action against POLCO in % ([15]; dosage 320 g/ha): 80%; Post-emergence action against AVEFA in % (Avena fatua (AVEFA)): 80%; Post-emergence action against VIOTR in % (Viola tricolor (VIOTR) [16]; 80 g/ha): 80%; Post-emergence action against VIOTR in % (Viola tricolor (VIOTR) [16]; 320 g/ha): 80%; Pre-emergence action against LOLRI in % (Lolium rigidum (LOLRI) [17]): 90%; Pre-emergence action against AMARE in % [18]: 100%
